Key:
[1] = test system: LPS-induced leukocyte adhesion; test: LPS-induced leukocyte adhesion in mice with EIU (IVM); format: in vivo, BALB/c mice; conditions: 6 h after LPS
Protocol: Male BALB/c mice aged 8–10 weeks and weighing 21–26 g (Charles River, QC, Canada) were housed in individually ventilated Allentown cages (Allentown Inc., NJ, United States). Maximum density was n = 5 per cage, with the same litter and sex. Male Lewis rats aged 7–10 weeks and weighing 200–300 g (Charles River, QC, Canada) were housed in static cages (Allentown Inc., NJ, United States), n = 2 per cage with the same litter and sex. Both mice and rats were maintained in a controlled environment (21°C–22°C, humidity range 40%–60%, and a 12 h light/dark cycle), with unrestricted access to food and water. All experiments were conducted in accordance with the standards and procedures of the Canadian Council on Animal Care ([CCAC, 2024]) and were approved by the Dalhousie University Committee on Laboratory Animals. The protocol #13-027 was approved for experimental work in mice. […] All experiments were performed and are reported in accordance with the ARRIVE guidelines ([Kilkenny et al., 2010]; [McGrath et al., 2010]).
Mice and rats were anesthetized with 5% isoflurane in 100% O2 and intraperitoneal (IP) injection of sodium pentobarbital (65 mg/kg), respectively, before receiving IVT injections of sterile 0.9% saline solution (control) or 125 ng/μL LPS (L8274, Sigma-Aldrich, St. Louis, MO, United States) diluted in 0.9% saline. Injections were administered through the pars plana using a 30-gauge needle and Hamilton syringe (Hamilton Company, Reno, NV, United States) with the assistance of a WILD M37 dissecting microscope (Leitz Canada, Vaughan, ON, Canada). Mice received 2 μL of the LPS solution; rats received 5 μL. To avoid touching the lens or damaging the eye, the tip of the needle was directed toward the posterior pole and only the beveled tip (2–3 mm) was allowed to enter the vitreal cavity. […]
IVM was used for in vivo investigations of LPS-induced leukocyte recruitment as previously described ([Toguri et al., 2014]). […] The depth of anesthesia throughout the procedure was assessed by the absence of a toe-pinch reflex. […]

[2] = target: T1, endogenous CB2R (Homo sapiens, UniProt P34972); test: Forskolin-stimulated cAMP in Jurkat cells; format: cell-based; conditions: data not shown
T1 construct: endogenous CB2R in human Jurkat cells; endogenous in cells; host or cells: Jurkat cells
T1 sequence (P34972 whole entry): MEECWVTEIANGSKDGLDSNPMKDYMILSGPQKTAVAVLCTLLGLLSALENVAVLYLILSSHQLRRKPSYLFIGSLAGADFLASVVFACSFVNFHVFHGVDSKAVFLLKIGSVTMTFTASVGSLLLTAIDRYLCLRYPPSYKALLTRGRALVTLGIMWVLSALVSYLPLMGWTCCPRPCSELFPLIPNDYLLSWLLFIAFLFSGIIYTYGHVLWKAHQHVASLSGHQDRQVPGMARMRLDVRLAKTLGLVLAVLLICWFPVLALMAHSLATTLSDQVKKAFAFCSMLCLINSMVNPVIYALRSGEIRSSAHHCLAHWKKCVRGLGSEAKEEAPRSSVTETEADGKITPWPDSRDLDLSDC

[3] = target: GAL2 (Homo sapiens, UniProt O43603); format: binding
Sequence of GAL2 (O43603 whole entry): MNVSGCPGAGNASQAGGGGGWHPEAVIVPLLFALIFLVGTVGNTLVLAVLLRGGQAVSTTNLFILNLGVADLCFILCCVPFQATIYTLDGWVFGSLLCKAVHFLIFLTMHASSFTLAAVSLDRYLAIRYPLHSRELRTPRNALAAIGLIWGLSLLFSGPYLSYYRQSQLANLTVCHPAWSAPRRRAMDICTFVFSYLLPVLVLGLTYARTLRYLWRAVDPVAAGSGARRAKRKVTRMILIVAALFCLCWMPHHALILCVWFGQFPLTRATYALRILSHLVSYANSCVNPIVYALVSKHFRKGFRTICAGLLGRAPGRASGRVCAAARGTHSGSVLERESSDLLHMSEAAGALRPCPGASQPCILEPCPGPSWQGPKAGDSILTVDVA
From the text: Supplement Table1.docx, table 3: Supplementary Table S3. RG7774 binding to non-CB1R/CB2R receptors, ion channels, transporters, and enzymes (CEREP, Celle l’Evescault, France; http://www.cerep.fr). | column: % inhibition of control SB (n = 2)

[4] = Ocular tissue PK in rats; format: in vivo; conditions: 26 days of oral administration, 3 and 30 mg/kg/day
Protocol: The plasma PK profile of RG7774 was assessed in adult male C57BL/6J mice and female Wistar rats (Charles River, Cologne, Germany) housed in a controlled environment (temperature, humidity, and 12 h light/dark cycle) with unrestricted access to food and water. The ocular PK profile of RG7774 was assessed in adult female […] rats (Charles River, Mattawan, MI, United States) housed in a controlled environment (21°C–22°C temperature, 40%–60%, humidity, and 12 h light/dark cycle) with unrestricted access to food and water and conducted according to local regulations by EyeCRO (Ann Arbor, MI, United States).
[…] […] Samples were collected from the tail vein or via heart puncture (terminal) and prepared within 30 min of collection by centrifugation at 3,000 g for 5 min at 4°C and were immediately frozen. RG7774 concentrations in plasma and homogenized tissues were determined using LC-MS/MS. PK parameters were estimated by non-compartmental analysis of plasma data using Phoenix WinNonlin software (Certara, Princeton, NJ, United States).

[5] = Thermodynamic solubility (THESA/FaSSIF/FeSSIF); format: physicochemical
From the text: S2.2 Thermodynamic solubility assay (THESA)

[6] = target: hERG (Homo sapiens, UniProt Q12809); test: hERG inhibition
Sequence of hERG (Q12809 whole entry): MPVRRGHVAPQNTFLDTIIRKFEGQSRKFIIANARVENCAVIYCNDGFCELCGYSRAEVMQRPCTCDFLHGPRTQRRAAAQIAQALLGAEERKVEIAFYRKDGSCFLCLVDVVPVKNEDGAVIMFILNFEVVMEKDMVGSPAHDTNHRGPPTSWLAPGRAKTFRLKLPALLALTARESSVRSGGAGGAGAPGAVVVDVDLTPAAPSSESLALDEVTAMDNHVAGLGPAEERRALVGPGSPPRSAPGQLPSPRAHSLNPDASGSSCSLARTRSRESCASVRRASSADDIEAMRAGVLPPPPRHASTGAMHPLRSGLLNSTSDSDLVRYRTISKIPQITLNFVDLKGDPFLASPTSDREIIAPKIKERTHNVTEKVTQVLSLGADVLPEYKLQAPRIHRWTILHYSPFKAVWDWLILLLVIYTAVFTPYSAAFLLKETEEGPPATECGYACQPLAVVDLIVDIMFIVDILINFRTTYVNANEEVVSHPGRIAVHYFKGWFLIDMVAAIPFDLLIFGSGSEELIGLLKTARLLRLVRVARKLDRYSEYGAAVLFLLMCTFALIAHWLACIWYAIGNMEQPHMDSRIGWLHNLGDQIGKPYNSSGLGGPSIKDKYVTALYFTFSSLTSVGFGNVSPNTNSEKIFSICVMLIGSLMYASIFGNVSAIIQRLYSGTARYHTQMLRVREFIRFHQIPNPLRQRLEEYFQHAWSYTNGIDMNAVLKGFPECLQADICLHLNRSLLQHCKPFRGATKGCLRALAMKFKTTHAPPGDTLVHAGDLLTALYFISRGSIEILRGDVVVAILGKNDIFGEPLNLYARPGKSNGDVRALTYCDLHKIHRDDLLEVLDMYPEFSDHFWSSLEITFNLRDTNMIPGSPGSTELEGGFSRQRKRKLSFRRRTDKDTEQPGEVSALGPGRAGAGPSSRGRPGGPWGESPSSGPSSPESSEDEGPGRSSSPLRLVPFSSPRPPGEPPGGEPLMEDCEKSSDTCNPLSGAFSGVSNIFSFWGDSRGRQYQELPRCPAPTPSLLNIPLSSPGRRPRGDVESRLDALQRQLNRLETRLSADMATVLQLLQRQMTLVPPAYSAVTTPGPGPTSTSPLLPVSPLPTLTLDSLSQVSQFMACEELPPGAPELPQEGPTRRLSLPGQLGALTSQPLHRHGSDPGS
From the text: TABLE 2 Physicochemical and ADMET profile for RG7774.

**Q.** What does the source list for `Cn1nnnc1Cn1nnc2c(N3CC[C@H](O)C3)nc(C(C)(C)C)nc21` [RG7774, (S)-1-(5-tert-butyl-3-[(1-methyl-1H-tetrazol-5-yl)methyl]-3H-[1,2,3]triazolo[4,5-d]pyrimidin-7-yl)pyrrolidin-3-ol]?
**A.** decrease in leukocyte adhesion compared to vehicle control ([1]; single IV 0.03 mg/kg): 21%; decrease in leukocyte adhesion compared to vehicle control ([1]; single IV 0.3 mg/kg): 65%; decrease in leukocyte adhesion compared to vehicle control ([1]; single IV 3 mg/kg): 82%; inhibition of forskolin-stimulated intracellular cAMP levels in Jurkat cells [2]: did not inhibit; % inhibition of control SB (n = 2) [3]: –4.0%; concentrations in retina and choroid/retinal pigment epithelium tissues relative to plasma [4]: in the same range as the total plasma concentration; exposure in the vitreous humor relative to plasma [4]: closer to that found in free plasma; FaSSIF ([5]; fasted simulated gastrointestinal fluid): 1177 µg/mL; FeSSIF ([5]; fed simulated gastrointestinal fluid): 2872 µg/mL; THESA ([5]; thermodynamic solubility): 901 µg/mL; IC50 [6]: > 20 µM

Source: article PMC11272598, “RG7774 (Vicasinabin), an orally bioavailable cannabinoid receptor 2 (CB2R) agonist, decreases retinal vascular permeability, leukocyte adhesion, and ocular inflammation in animal models” (Frontiers in Pharmacology, 2024)
